What was measured:
[1] = system: precancerous mammary alveolar lesions (MAL); test: Mouse mammary gland organ culture, DMBA-induced mammary alveolar lesions; format: cell-based, Balb/c mice
Protocol: Mammary glands obtained from young Balb/c mice that are exposed to 7,12-dimethylbenz(a)anthracene (DMBA) for 24 h in culture to form precancerous lesions in 24 days. The procedure has been successfully used to determine efficacy of chemopreventive agents and is described in detail elsewhere. (Mehta et al. PPARγ ligand and retinoids prevent preneoplastic mammary lesions. J. Natl Cancer Instit 2000; 92:418-23). Briefly, 70 mammary glands from 35 Balb/c mice were divided into seven groups of 10 glands each and incubated in serum-free medium containing insulin, prolactin (5 μg/ml each), aldosterone and hydrocortisone (1 μg/ml each) for 10 days. DMBA (2 μg/ml) was included in the medium for 24 h on day 3. […] The glands were fixed in formalin and stained with alum carmine and evaluated for MAL. Percent inhibition was calculated by comparing the incidence in the control glands with the treated groups.
Mammary glands obtained from young Balb/c mice were exposed to DMBA as described above and MAL formation was monitored. […] (Mehta et al. PPARγ ligand and retinoids prevent preneoplastic mammary lesions. J. Natl Cancer Instit 2000; 92:418-23) In the present study, we evaluated effects of etoposide and ML-7 at 0.1, 1.0 and 10.0 μM concentrations on the development of MAL in organ culture. […] Percentage inhibition was calculated by comparing the incidence in the control glands with the treated groups. […]

[2] = system: MLC-P; test: MLC-P by urea/glycerol gel immunoblotting in Mm5MT cells; format: cell-based, mouse; settings: 10 μM ML-7, 30 μM etoposide or both, 16 h
Protocol: MLC-P protein was measured by urea/glycerol gel immunoblotting. Mm5MT or MLL cancer cells in 6-well plates were treated with ML-7 (10 or 5 μM, respectively) or etoposide (30 μM) or combination of two at indicated concentrations for 16 h. MLC-P in cancer cells was then quantified by the urea/glycerol gel-immunoblotting method. Briefly, cancer cells were fixed in 10% trichloroacetic acid (TCA) containing 10 mM dithiothreitol (DTT). Cell pellets were washed four times with acetone and protein was extracted by dissolving in buffer containing 9 M urea, 10 mM DTT and 20 mM Tris, pH 8.0. […] This antibody recognizes the unphosphorylated and phosphorylated forms of MLC20. Immunoreactive bands were visualized using enhanced chemiluminescence (ECL) detection reagents (Amersham Pharmacia Biotech, Piscataway, N.J.).
MLC-P was measured by urea/glycerol gel-immunoblotting as described above. Un and P identify unphosphorylated and phosphorylated MLC20, respectively. […] This experiment was repeated four times and the data from a representative experiment is shown.

[3] = system: Mm5MT cells
Protocol: To investigate the anticancer activity of ML-7 in vivo, Mm5MT cells grown in culture were harvested immediately before injection into syngeneic MMTV-C3H/HeN mice. Cells were washed to remove serum and 10^6 cells were resuspended in 100 μl of serum-free DMEM. Healthy, MMTV-free female mice (14-20 weeks old) were anesthetized with ether and 10^6 cells were injected subcutaneously into the right flank. The mice were randomly divided into four groups of five mice each, and treated with vehicle, ML-7, etoposide or ML-7 plus etoposide. […] To deliver ML-7, a small horizontal incision was made in the interscapular area and a 200 μl osmotic pump (Alzet, Cupertino, Calif.) filled with either 27 mM ML-7 in 50% DMSO or 50% DMSO (vehicle control) was implanted and the wound closed. When given, 25 mg/kg etoposide was injected intraperitoneally on the first 3 days of every week for 4 weeks (days 7-9, 14-16, 21-23 and 28-30). The mice were sacrificed with ether after 4 weeks of drug administration and tumors were removed, weighed and processed for analysis.
Excised tumors were gently patted dry and weighed using a Mettler digital balance. Tumors were sectioned into 2 mm slices, fixed in 10% neutral buffered formalin, routinely processed and embedded in paraffin. […] Photomicrographs documenting the entire section were collected and areas of necrotic and viable tumor were determined using the manual tracing tools within MetaMorph 6.2 (Universal Imaging Corporation, Downingtown, Pa.).

[4] = system: MLL cells; test: MLL prostate tumor in Copenhagen rats, ML-7 and/or etoposide; format: in vivo
Protocol: To determine whether ML-7 stimulated the ability of etoposide to induce apoptosis and retard tumor growth more generally in tumor cells, the effects of ML-7 and etoposide on MLL prostate cancer cells were examined. MLL cells grown in culture were harvested and washed in serum-free Hank's buffer. The cells were suspended in 500 μl serum-free Hank's media and 10^6 cells were injected subcutaneously into the right flank of 12-week old male Copenhagen rats anesthetized with ether. […] Rats were randomly divided into four groups, five in each group, and received injections of ML-7 or vehicle via the jugular vein every 4 days for 2 weeks. ML-7 was used at the dose of 35 mg/kg. In mice receiving etoposide the drug was injected IP at the maximum tolerant dose of 50 mg/m^2 daily. Rats were sacrificed with ether 14 days after the start of drug treatment, and tumors removed, weighed and processed as described below.
To test the anticancer effect of ML-7 in a rat prostate cancer model, ML-7 or vehicle was administered by intrajugular injection, and etoposide administered by intraperitoneal injection. Male Copenhagen rats were inoculated with MLL cells as described above. […] The rats were sacrificed after 14 days of drug treatment and tumor weight and body weight were recorded.
Tumor sections were deparaffinized and rehydrated according to standard procedures. […]

SMILES: COc1cc([C@@H]2c3cc4c(cc3[C@@H](O[C@@H]3O[C@@H]5CO[C@@H](C)O[C@H]5[C@H](O)[C@H]3O)[C@H]3COC(=O)[C@H]23)OCO4)cc(OC)c1O [etoposide]
- MAL formation ([1]; 0.1 μM): did not affect MAL formation
- inhibition of incidence of MAL formation compared to control ([1]; 1 and 10 μM): 40-46%
- MLC-P [2]: decreased MLC-P
- tumor necrosis (histology) ([3]; FIG. 14B): Limited areas of necrosis
- tolerability ([3]; mouse, in vivo): without visible signs of discomfort
- tumor growth ([3]; single agents vs vehicle, only the etoposide effect statistically significant): decreased tumor growth
- TUNEL positive nuclei in tumors ([4]; 300 cells, MLL tumors in rats (FIG. 17)): 35.8%
- decrease in tumor weight vs vehicle control ([4]; rats, ML-7 35 mg/kg jugular vein every 4 days, etoposide 50 mg/m^2 IP daily, 14 days): 43.3%

Reference: patent US20080081078A1, “Prevention of Cell Proliferation by Inhibiting Myosin Light Chain Kinase” (The Board of Trustees of the University of Illinois, priority 2006, published 2008)
